Assay results taken from ChEMBL document CHEMBL1201862, “PubChem BioAssay data set” (2004).
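All cell lines were grown in 96-well plates and treated with compound for 48 hours. GI50: concentration for 50% inhibition of growth.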 The source made the active and inactive calls. No stated cut-off is given here; in the data, active = GI50 up to about 1.1 µM and inactive = higher.

Legend:
Test in all cases: inhibition of tumour cell growth, NCI panel, 48 h
[1] = system: NCI-H460
[2] = system: COLO 205
[3] = system: SF-539
[4] = system: A549
[5] = system: SW-620
[6] = system: M14
[7] = system: NCI-H23
[8] = system: HCC 2998
[9] = system: SNB-75
[10] = system: HCT-116
[11] = system: HL-60
[12] = system: OVCAR-3
[13] = system: SNB-19
[14] = system: HOP-92
[15] = system: UO-31
[16] = system: UACC-62
[17] = system: PC-3
[18] = system: MDA-MB-231
[19] = system: Hs-578T

## ClCCNCCNCCCl.ClCCNCCNCCCl.[O-][Cl+3]([O-])([O-])O
[1]
  GI50: 22.3 µM (inactive)
[2]
  GI50: 40.7 µM (inactive)
[3]
  GI50: 26.2 µM (inactive)
[4]
  GI50: 73.5 µM (inactive)
[5]
  GI50: 21 µM (inactive)
[6]
  GI50: 19.5 µM (inactive)
[7]
  GI50: 27.9 µM (inactive)
[8]
  GI50: > 100 µM (inactive)
[9]
  GI50: 19 µM (inactive)
[10]
  GI50: 27.5 µM (inactive)
[11]
  GI50: 30.3 µM (inactive)
[12]
  GI50: 17.6 µM (inactive)
[13]
  GI50: > 100 µM (inactive)
[14]
  GI50: 39.7 µM (inactive)
[15]
  GI50: 26.8 µM (inactive)
[16]
  GI50: 26.9 µM (inactive)

## COC(=O)[C@H]1COC(=S)N1C(=O)[C@@H](C)[C@H](O)C(C)C
[1]
  GI50: > 100 µM (inactive)
[2]
  GI50: > 100 µM (inactive)
[3]
  GI50: > 100 µM (inactive)
[4]
  GI50: > 100 µM (inactive)
[5]
  GI50: > 100 µM (inactive)
[6]
  GI50: > 100 µM (inactive)
[7]
  GI50: > 100 µM (inactive)
[8]
  GI50: > 100 µM (inactive)
[9]
  GI50: 42 µM (inactive)
[10]
  GI50: > 100 µM (inactive)
[11]
  GI50: > 100 µM (inactive)
[12]
  GI50: > 100 µM (inactive)
[13]
  GI50: > 100 µM (inactive)
[14]
  GI50: > 100 µM (inactive)
[15]
  GI50: > 100 µM (inactive)
[16]
  GI50: > 100 µM (inactive)

## COc1ccc(OC)c(CCc2cc(OC)c(OC)cc2C)c1
[1]
  GI50: 34.2 µM (inactive)
[2]
  GI50: 33.4 µM (inactive)
[4]
  GI50: 29.3 µM (inactive)
[5]
  GI50: 5.6 µM (inactive)
[6]
  GI50: 4.26 µM (inactive)
[7]
  GI50: 32.1 µM (inactive)
[8]
  GI50: 27.5 µM (inactive)
[9]
  GI50: 16.8 µM (inactive)
[12]
  GI50: 3.05 µM (inactive)
[13]
  GI50: 92.7 µM (inactive)
[15]
  GI50: 30.1 µM (inactive)
[16]
  GI50: 25.2 µM (inactive)

## CC(C)(C)N/N=C(\C(=O)Nc1nnc(S)[nH]1)C1C(=O)Nc2ccccc2[S+]1[O-] (stereo not drawn)
[1]
  GI50: > 100 µM (inactive)
[2]
  GI50: > 100 µM (inactive)
[3]
  GI50: > 100 µM (inactive)
[4]
  GI50: > 100 µM (inactive)
[5]
  GI50: > 100 µM (inactive)
[6]
  GI50: > 100 µM (inactive)
[7]
  GI50: > 100 µM (inactive)
[8]
  GI50: > 100 µM (inactive)
[9]
  GI50: > 100 µM (inactive)
[10]
  GI50: > 100 µM (inactive)
[11]
  GI50: > 100 µM (inactive)
[12]
  GI50: > 100 µM (inactive)
[13]
  GI50: > 100 µM (inactive)
[15]
  GI50: > 100 µM (inactive)
[16]
  GI50: > 100 µM (inactive)

## CSc1cc(Cl)c(C)cc1S(=O)(=O)NC(=O)NNc1cccc(C(F)(F)F)n1
[1]
  GI50: > 100 µM (inactive)
[2]
  GI50: > 100 µM (inactive)
[17]
  GI50: > 100 µM (inactive)
[3]
  GI50: 51.8 µM (inactive)
[4]
  GI50: > 100 µM (inactive)
[5]
  GI50: > 100 µM (inactive)
[6]
  GI50: > 100 µM (inactive)
[18]
  GI50: > 100 µM (inactive)
[8]
  GI50: > 100 µM (inactive)
[9]
  GI50: 91.8 µM (inactive)
[10]
  GI50: > 100 µM (inactive)
[12]
  GI50: > 100 µM (inactive)
[13]
  GI50: > 100 µM (inactive)
[19]
  GI50: > 100 µM (inactive)

## C[C@]12CCc3nonc3C1CC[C@@H]1C2CC[C@]2(C)NC(=O)CCC12 (stereo partly drawn)
[1]
  GI50: > 100 µM (inactive)
[2]
  GI50: > 100 µM (inactive)
[3]
  GI50: > 100 µM (inactive)
[4]
  GI50: > 100 µM (inactive)
[5]
  GI50: > 100 µM (inactive)
[6]
  GI50: > 100 µM (inactive)
[7]
  GI50: > 100 µM (inactive)
[9]
  GI50: > 100 µM (inactive)
[10]
  GI50: > 100 µM (inactive)
[11]
  GI50: > 100 µM (inactive)
[12]
  GI50: > 100 µM (inactive)
[13]
  GI50: > 100 µM (inactive)
[14]
  GI50: > 100 µM (inactive)
[15]
  GI50: > 100 µM (inactive)
[16]
  GI50: > 100 µM (inactive)

## S=C(NCCc1ccccn1)N/N=C/c1ccccn1
[1]
  GI50: 0.501 µM (active)
[2]
  GI50: < 0.01 µM (active)
[17]
  GI50: 0.0115 µM (active)
[3]
  GI50: 0.127 µM (active)
[4]
  GI50: 0.578 µM (active)
[5]
  GI50: < 0.01 µM (active)
[6]
  GI50: 0.0131 µM (active)
[18]
  GI50: < 0.01 µM (active)
[7]
  GI50: < 0.01 µM (active)
[8]
  GI50: 3.06 µM (inactive)
[9]
  GI50: 9.35 µM (inactive)
[10]
  GI50: < 0.01 µM (active)
[11]
  GI50: < 0.01 µM (active)
[12]
  GI50: < 0.01 µM (active)
[13]
  GI50: 2.28 µM (inactive)
[16]
  GI50: 0.0841 µM (active)

## CSC1=N/C(=C\c2ccc(Cl)cc2)C(=O)N1CN1CCCCC1
[2]
  GI50: 60.1 µM (inactive)
[17]
  GI50: 35.3 µM (inactive)
[4]
  GI50: 42.4 µM (inactive)
[5]
  GI50: 34.9 µM (inactive)
[6]
  GI50: 79.1 µM (inactive)
[18]
  GI50: 42.1 µM (inactive)
[7]
  GI50: 64.3 µM (inactive)
[9]
  GI50: 46.2 µM (inactive)
[10]
  GI50: 37.7 µM (inactive)
[12]
  GI50: 34.2 µM (inactive)
[15]
  GI50: 23.6 µM (inactive)
[19]
  GI50: 20.7 µM (inactive)
[16]
  GI50: 65.8 µM (inactive)

## O=C1c2ccccc2-c2ccccc2C(=O)C1(Br)Br
[1]
  GI50: 19.1 µM (inactive)
[2]
  GI50: 8.24 µM (inactive)
[3]
  GI50: 9.51 µM (inactive)
[4]
  GI50: 17.7 µM (inactive)
[5]
  GI50: 3.8 µM (inactive)
[6]
  GI50: 5.33 µM (inactive)
[7]
  GI50: 13.4 µM (inactive)
[8]
  GI50: 18.2 µM (inactive)
[9]
  GI50: 12.9 µM (inactive)
[10]
  GI50: 7.73 µM (inactive)
[11]
  GI50: 2.15 µM (inactive)
[12]
  GI50: 14.1 µM (inactive)
[13]
  GI50: 17.7 µM (inactive)
[14]
  GI50: 3.21 µM (inactive)
[15]
  GI50: 14.4 µM (inactive)
[16]
  GI50: 7.36 µM (inactive)
